The results in this text go back to ChEMBL document CHEMBL1208723, “Synthesis and activity of polyacetylene substituted 2-hydroxy acids, esters, and amides against microbes of clinical importance” (Bioorg Med Chem Lett, 2010).

The subject of test [1] is Candida albicans. In words: Antifungal activity against Candida albicans. The test is classed as functional, organism-based.
Test [2] concerns Nakaseomyces glabratus. In words: Antifungal activity against Candida glabrata. In kind it is functional, organism-based.
Test [3] concerns Candida tropicalis. In words: Antifungal activity against Candida tropicalis. In kind it is functional, organism-based.
In test [4] the test system is Pichia kudriavzevii. In words: Antifungal activity against Candida krusei. In kind it is functional, organism-based.
In test [5] the test system is Candida parapsilosis. In words: Antifungal activity against Candida parapsilosis. The test is classed as functional, organism-based.
The test system of test [6] is Staphylococcus aureus. The experiment in a line: Antibacterial activity against Staphylococcus aureus ATCC 25923. Note: test concentration or dose not given here. In kind it is functional.
The test system of test [7] is Pseudomonas aeruginosa. The experiment in a line: Antibacterial activity against Pseudomonas aeruginosa ATCC 27853. Note: test concentration or dose not given here. The test is classed as functional.
Test [8] deals with Escherichia coli. The experiment in a line: Antibacterial activity against Escherichia coli ATCC 25922. Note: test concentration or dose not given here. In kind it is functional.
Test [9] relates to Streptococcus pyogenes. The experiment in a line: Antibacterial activity against Streptococcus pyogenes ATCC 19615. Note: test concentration or dose not given here. The test is classed as functional.
Test [10] deals with Staphylococcus aureus. In words: Antibacterial activity against methicillin-resistant Staphylococcus aureus. Note: test concentration or dose not given here. In kind it is functional.

For the compound `CCCCC#CC#C/C=C/CCCCCCC(O)C(=O)OC(C)C` (stereo not given), the IC50 result in test [1], in test [2], in [3], in [4] and in test [5] was “Not Active” in each case. For the same compound, the “inhibition (INH)” value in [6] is listed as 25%; in test [7] it was greater than 75%; in test [8], 50%; in test [9], greater than 75%; in test [10], 50%.
